Several values for one entry are separate records, joined by “and”; a condition that tells them apart may be missing. Equal values may be shown once.
Assays:
sRANKL = target: T1, sRANKL (Rattus norvegicus, UniProt Q9ESE2, D175N); experiment: Surface plasmon resonance (SPR) assay; format: binding; settings: immobilized sRANKL, 25 °C
T1 construct: (1) sRANKL (rat 159-318 aa); His6-sumo (N, cleaved yes); made in house; host or cells: Escherichia coli BL21 (DE3)
T1 sequence (Q9ESE2 159-318 D175N): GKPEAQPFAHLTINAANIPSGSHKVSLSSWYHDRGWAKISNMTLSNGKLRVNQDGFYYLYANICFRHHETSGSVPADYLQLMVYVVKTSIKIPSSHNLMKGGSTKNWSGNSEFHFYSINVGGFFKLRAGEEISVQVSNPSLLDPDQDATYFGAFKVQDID
Method: A ProteOn XPR36TM SPR instrument (BioRad Hercules, CA) was used for carrying out SPR assays. sRANKL protein in PBS buffer, pH 7.4, was diluted to 20 nM in 10 mM sodium acetate buffer, pH 5.5 and immobilized in parallelflow channels of a the EDAC/Sulfo-NHS activated surface of a GLH biosensor chip (Bio-Rad) with an amine coupling kit (Bio-Rad). The surface was blocked with 1 M ethanolamine. The final immobilization level for sRANKL was approximately 14,000 RU. A blank immobilization channel in the same GLH biosensor chip was also activated with EDAC/Sulfo-NHS and blocked with 1 M ethanolamine to use as a reference.
Biosensor binding experiments were conducted in filtered and degassed running buffer (PBS containing 0.005% Tween-20, pH 7.4) at 25 °C. Compounds was dissolved in 100% DMSO in appropriate different series concentrations of stock solutions. Before detecting, compounds were diluted in six or five concentrations with running buffer and ensured that the content of DMSO contained in each detected concentration was consistent. Compounds in different concentrations were injected simultaneously at a flow rate at […] for 180 s and 120 s for the association phase, followed by 180 s for the disassociation. Following the compound injection, the chip surface was regenerated with 40 s pulses of 0.85% H3PO4 and running buffer.
ProtedOn Manager 2.0. was used for data analysis. Each set of sensorgrams was globally analyzed using the 1:1 Langmuir binding model to obtain the kinetic rate constants (Kon and Koff). Global kinetic rate constants (ka and kd) were derived for each reaction, and the equilibrium dissociation constant, KD, was calculated using the equation KD = kd/ka.

[1] = Pharmacokinetic studies in rat; format: in vivo; set-up: plasma concentration-time (fig. S2c): unit not given here; settings: for Cmax / half-life: Sprague-Dawley; for Cmax / half-life / plasma concentration-time (fig. S2c): rat; for Cmax / half-life / AUC: male SD rats, oral 10 mg/kg, plasma
Method: 28-week-old and 280 g∼370 g weight male SD (Sprague Dawley) rats were used for pharmacokinetic (PK) studies. Rats were weighed and divided into groups of 3 rats per group. Compounds S3, S3-05 and S3-15 were dissolved in deionized water and made the concentration to 1 mg/mL. Then rats were oral gavage administrated at the doses of 10 mg/kg for each compound. Blood samples were collected in tubes with heparin sodium at 5 min, 10 min, 20 min, 30 min, 40 min, 60 min, 2 h, 3 h, 4 h, 5.5 h, 7 h, 9 h, 12 h, 16 h, 24 h, 32 h, 40 h, 48 h, time points, with three […] per time point for each compound. Blood samples were centrifuged 2100 × g for 10 min at 4 °C, then the plasma was transferred to a clean microfuge tube. Plasma samples were stored at −80 °C. Additionally, ten rats were used as a control and not treated with compound. Plasma from control mice was used to calibrate LC-MS and correct for matrix effects. Drug concentration in plasma was quantified by LC-MS-based methods. Pharmacokinetic parameters were estimated using Phoenix WinNonlin (version 6.3) (Certara USA, Princeton, New Jersey) from mean plasma concentration-time profiles.

C3H10T1/2 = C3H10T1/2 proliferation and osteoblastic mineralization; format: cell-based, mouse; settings: C3H10T1/2 or human primary osteoblasts, osteogenic differentiation medium
Method: Supplementary Fig.5. In Vitro Activity Evaluation and Signal Pathway Study of compound S3-15. a Western blot of PI3K and AKT phosphorylation in RAW264.7 cells treating with or without S315 and sRANKL at different point-in-time. b EC50 curve and representative OC microphotographs of mature osteoclasts apoptosis assay with S3-15. n=3 biological replicates for each concentration. EC50 values were calculated by GraphPad Prism 8 software. c EC50 curve and representative OC microphotographs of mature osteoclasts apoptosis assay with S3, S3-03 and S3-05. n=3 biological replicates for each concentration. EC50 values were calculated by GraphPad Prism […]
pits in dose-dependent manner (mouse BMMs). e Precursor osteoblasts C3H10T12 proliferation-promoting of S3, S3-05 and S3-15. f Osteoblastic mineralization after treatment with S3, S3-05 and S3-15. C3H10T12 cells were cultured in osteoblast induction differentiation medium with or without treatment for 14 days and determinate of calcium deposition in differentiated osteoblasts by Alizarin red staining. Error bars represent ± s.d. n=3. Statistical difference was determined by unpaired two-tailed Student’s t test. Significant difference p value is < 0.05. Scale […]
(1 picture or pasted object on this page, not shown here)

OVX rats = experiment: Osteoporosis biomarkers determination in rat serum (ELISA); format: in vivo; set-up: OCN / RANKL / PINP / CTX-I / Glu-OCN: unit not given here; settings: for CTX-I / Glu-OCN / OCN / PINP / RANKL: serum, OVX + compound, individual animals
Method: Change of rat osteoporosis biomarkers after treating with S3-15 were determined by enzyme-linked immunosorbent assay (ELISA). […] serum biomarkers including CTX-I (C-terminal telopeptide of type I collagen), OC(Osteocalcin), PINP (Procollagen I N-Terminal propeptide), and RANKL(Receptor activator of nuclear factor-κB ligand). Rat blood was collected from aortaventralis after anesthesia, and centrifuged in 14000 × g at 4 °C to get the serum samples. The protein contents of those biomarkers in serum samples were detected according to manufacturer’s instruction (CTX-I and OC, Systems IDS, UK; RANKL, R&D Systems, USA; PINP, USCN Life Science, Inc., China.).

[2] = OVX rats + S3-15, individual animals

Row | Structure (SMILES) | Kd (sRANKL) [µM] | Cmax [1] [ng/mL] | half-life [1] [h] | AUC [1] [hr*ug/m] | plasma concentration-time (fig. S2c) ([1]; time 0.083 h) | plasma concentration-time (fig. S2c) ([1]; time 0.167 h) | plasma concentration-time (fig. S2c) ([1]; time 0.333 h) | plasma concentration-time (fig. S2c) ([1]; time 0.5 h) | plasma concentration-time (fig. S2c) ([1]; time 0.667 h) | plasma concentration-time (fig. S2c) ([1]; time 1 h) | plasma concentration-time (fig. S2c) ([1]; time 2 h) | plasma concentration-time (fig. S2c) ([1]; time 3 h) | plasma concentration-time (fig. S2c) ([1]; time 4 h) | plasma concentration-time (fig. S2c) ([1]; time 5.5 h) | plasma concentration-time (fig. S2c) ([1]; time 7 h) | plasma concentration-time (fig. S2c) ([1]; time 9 h) | plasma concentration-time (fig. S2c) ([1]; time 12 h) | plasma concentration-time (fig. S2c) ([1]; time 16 h) | plasma concentration-time (fig. S2c) ([1]; time 24 h) | plasma concentration-time (fig. S2c) ([1]; time 48 h) | also measured
1 | CCOC(=O)c1sc(NC(=O)/C(=N/Nc2ccccc2C(=O)O)C(C)=O)nc1C [S3, (E)-2-(2-(1-((5-(ethoxycarbonyl)-4-methylthiazol-2-yl)amino)-1,3-dioxobutan-2-ylidene) hydrazinyl) benzoic acid] | 34.8 | 1430 ± 650 | 7.51 | 5.67± 3.48 | 1.351 and 0.4444 and 0.2871 | 2.528 and 0.9092 and 0.8091 | 3.09 and 1.211 and 2.048 | 3.054 and 1.206 and 2.481 | 2.576 and 1.333 and 1.703 | 1.712 and 1.674 and 1.242 | 1.693 and 1.071 and 0.7425 | 1.218 and 0.6709 and 0.4108 | 1.2291 and 0.8619 and 0.3316 | 0.4965 and 0.6324 and 0.178 | 0.6171 and 0.2252 and 0.1625 | 0.8173 and 0.544 | 0.5875 and 0.2812 and 0.1945 | 1.063 and 0.3858 and 0.544 | 1.148 and 0.1582 and 0.2706 | 0.06761 and 0.02244 and 0.00409 | cell proliferation and mineralization (C3H10T1/2): increase cell proliferation and mineralization; CTX-I (OVX rats): 21.3236 and 22.8572 and 16.6793 and 10.172 and 21.7818 and 24.1752 and 24.2142 and 25.7828; Glu-OCN (OVX rats): 19.4432 and 20.3365 and 14.3331 and 16.8798 and 23.559 and 26.5413 and 32.3597 and 27.0763; OCN (OVX rats): 79.4709 and 101.933 and 71.1854 and 74.676 and 124.633 and 154.593 and 174.247 and 198.288; PINP (OVX rats): 3388.13 and 10860 and 11369.2 and 5541.99 and 4144.03 and 7092.56 and 5050.08 and 5955.78; RANKL (OVX rats): 139.364 and 152.091 and 195.727 and 181.182 and 193.909 and 213.909 and 163 and 128.454
2 | CCOC(=O)c1sc(NC(=O)/C(=N/Nc2ccc(O)cc2C(=O)O)C(C)=O)nc1C [S3-05] | 23.6 | 60 ± 10 | 10.6 ± 2.31 | 0.38± 0.23 | 0.0241 and 0.0344 and 0.0141 | 0.091 and 0.0772 and 0.0497 | 0.07 and 0.0598 and 0.0834 | 0.063 and 0.055 and 0.0901 | 0.057 and 0.0597 and 0.0836 | 0.0458 and 0.0351 and 0.0779 | 0.0356 and 0.0153 and 0.0386 | 0.0376 and 0.0287 and 0.0316 | 0.0238 and 0.027 and 0.0298 | 0.0163 and 0.0195 and 0.0418 | 0.0115 and 0.0105 and 0.0613 | 0.0058 and 0.0107 and 0.0452 | 0.0058 and 0.0222 and 0.0307 | 0.0077 and 0 and 0.0286 | 0.0024 and 0.0688 and 0.0143 | 0.0008 and 0.0021 and 0.0027 | cell proliferation and mineralization (C3H10T1/2): increase cell proliferation and mineralization; CTX-I (OVX rats): 12.9391 and 9.961 and 23.5145 and 16.5322 and 12.0463 and 14.1264 and 13.0825 and 21.4762; Glu-OCN (OVX rats): 23.1879 and 10.5179 and 18.8663 and 21.4957 and 14.7477 and 20.9157 and 18.2902 and 26.5413; OCN (OVX rats): 109.522 and 50.9168 and 121.686 and 154.593 and 50.4316 and 135.849 and 58.7802 and 162.173; PINP (OVX rats): 4703.95 and 10142.4 and 4202.52 and 5828.23 and 7980.56 and 6497.2 and 3099 and 3185.01; RANKL (OVX rats): 183 and 172.091 and 217.546 and 201.182 and 228.454 and 173.909 and 175.727 and 170.273
3 | CC(=O)/C(=N\Nc1ccccc1C(=O)O)C(=O)Nc1ccccn1 [S3-15] | 33.7 | 9520 ± 920 | 15.5 | 113.59± 17.41 | 8.91 and 3.381 and 6.675 | 27.134 and 17.7488 and 10.2458 | 13.8156 and 22.2223 and 11.4529 | 17.5658 and 15.3508 and 13.9547 | 19.2235 and 12.2338 and 15.5001 | 10.8474 and 12.0395 and 10.786 | 16.2026 and 12.172 and 14.9878 | 10.9318 and 10.4453 and 9.091 | 11.3125 and 10.0653 and 13.8947 | 8.587 and 8.51 and 12.2576 | 16.4452 and 12.0395 and 11.7835 | 19.4794 and 12.2576 and 12.0395 | 5.907 and 4.021 and 6.547 | 1.447 and 2.372 and 1.915 | 0.5718 (2×) and 0.5604 | 0.1406 and 0.08379 and 0.1171 | oral availability ([1]; rat PK, in words): significant oral availability; plasma concentration-time (fig. S2c) ([1]; time 28 h): 0.2204 (2×) and 0.3334; plasma concentration-time (fig. S2c) ([1]; time 36 h): 0.2818 (2×) and 0.3414; cell proliferation and mineralization (C3H10T1/2): increase cell proliferation and mineralization; CTX-I, serum (OVX rats; [2]): 19.469 pg/mL and 18.8316 pg/mL and 14.1264 pg/mL and 18.682 pg/mL and 15.0327 pg/mL and 20.1095 pg/mL and 19.8831 pg/mL and 22.3952 pg/mL and 19.2437 pg/mL; Glu-OCN, serum (OVX rats; [2]): 17.0885 pg/mL and 18.9711 pg/mL and 13.9189 pg/mL and 19.8634 pg/mL and 15.7343 pg/mL and 15.8903 pg/mL and 20.547 pg/mL and 20.6523 pg/mL and 22.4466 pg/mL; OCN, serum (OVX rats; [2]): 88.7207 pg/mL and 63.1562 pg/mL and 56.8431 pg/mL and 170.125 pg/mL and 130.12 pg/mL and 70.5071 pg/mL and 180.184 pg/mL and 178.468 pg/mL and 148.784 pg/mL; PINP, serum (OVX rats; [2]): 11904.5 pg/mL and 9058.6 pg/mL and 6938.35 pg/mL and 7805.25 pg/mL and 15755.4 pg/mL and 15266.7 pg/mL and 4261.9 pg/mL and 14338.4 pg/mL and 6837.57 pg/mL; RANKL, serum (OVX rats; [2]): 197.546 pg/mL and 226.636 pg/mL and 184.818 pg/mL and 228.454 pg/mL and 215.727 pg/mL and 223 pg/mL and 210.273 pg/mL
